Key:
Conditions in all cases: 72 h
U2OS [1] = assay: drug sensitivity score (DSS) for viability; higher = more toxic; extreme values may be limits of the assay
Caco-2 [2] = assay: as above
HepG2 [3] = assay: as above
U2OS [4] = assay: cell viability relative to DMSO; higher = less toxic
Caco-2 [5] = assay: as above
HepG2 [6] = assay: as above
U2OS [7] = assay: relative viability EC50 (midpoint between 100% and the lowest measured viability); higher = less toxic
Caco-2 [8] = assay: as above
HepG2 [9] = assay: as above
Calu-3 [10] = assay: drug sensitivity score (DSS) for viability; higher = more toxic; extreme values may be limits of the assay
Vero E6 [11] = assay: as above
Calu-3 [12] = assay: cell viability relative to DMSO; higher = less toxic
Vero E6 [13] = assay: as above
Calu-3 [14] = assay: relative viability EC50 (midpoint between 100% and the lowest measured viability); higher = less toxic
Vero E6 [15] = assay: as above

Row | SMILES | drug sensitivity score (U2OS [1]) | drug sensitivity score (Caco-2 [2]) | drug sensitivity score (HepG2 [3]) | cell viability (U2OS [4]; 1 nM) | cell viability (U2OS [4]; 10 nM) | cell viability (U2OS [4]; 100 nM) | cell viability (U2OS [4]; 1000 nM) | cell viability (U2OS [4]; 10000 nM) | cell viability (Caco-2 [5]; 1 nM) | cell viability (Caco-2 [5]; 10 nM) | cell viability (Caco-2 [5]; 100 nM) | cell viability (Caco-2 [5]; 1000 nM) | cell viability (Caco-2 [5]; 10000 nM) | cell viability (HepG2 [6]; 1 nM) | cell viability (HepG2 [6]; 10 nM) | cell viability (HepG2 [6]; 100 nM) | cell viability (HepG2 [6]; 1000 nM) | cell viability (HepG2 [6]; 10000 nM) | relative viability EC50 (U2OS [7]) | relative viability EC50 (Caco-2 [8]) | relative viability EC50 (HepG2 [9]) | drug sensitivity score (Calu-3 [10]) | drug sensitivity score (Vero E6 [11]) | cell viability (Calu-3 [12]; 1 nM) | cell viability (Calu-3 [12]; 10 nM) | cell viability (Calu-3 [12]; 100 nM) | cell viability (Calu-3 [12]; 1000 nM) | cell viability (Calu-3 [12]; 10000 nM) | cell viability (Vero E6 [13]; 1 nM) | cell viability (Vero E6 [13]; 10 nM) | cell viability (Vero E6 [13]; 100 nM) | cell viability (Vero E6 [13]; 1000 nM) | cell viability (Vero E6 [13]; 10000 nM) | relative viability EC50 (Calu-3 [14]) | relative viability EC50 (Vero E6 [15])
1 | CC(=O)NNC(=O)N1Cc2ccccc2Oc2ccc(Cl)cc21 | 0 | 0 | 0.1 | 98.5% | 95.9% | 101% | 99.9% | 102% | 105% | 100% | 107% | 95.5% | 99.7% | 98.5% | 102% | 96.1% | 94% | 87.7% | > 10 µM | > 10 µM | > 10 µM | – | – | – | – | – | – | – | – | – | – | – | – | – | –
2 | Cc1cccc(C(=O)NCN2CCN(c3ccccc3C#N)CC2)c1 | 0 | 0 | 0 | 98.1% | 103% | 97.2% | 101% | 101% | 95.3% | 103% | 89.1% | 104% | 104% | 105% | 96.6% | 96.9% | 101% | 94.5% | > 10 µM | > 10 µM | > 10 µM | – | – | – | – | – | – | – | – | – | – | – | – | – | –
3 | Cc1oc2ccccc2c1CNC(=O)NCc1cccs1 | – | 0 | – | – | – | – | – | – | 103% | 106% | 98.4% | 96.9% | 96.6% | – | – | – | – | – | – | > 10 µM | – | 0 | 0 | 92.4% | 93.4% | 96.2% | 89.9% | 99.3% | 103% | 107% | 102% | 96.9% | 97.9% | > 10 µM | > 10 µM
4 | Cn1cc(/C=C2\C(=O)Nc3cccnc32)c2ccccc21 | 0 | 0 | – | 93.9% | 98.4% | 95.3% | 101% | 99.5% | 97.9% | 94.4% | 95.2% | 94% | 91.7% | – | – | – | – | – | > 10 µM | > 10 µM | – | 0 | 0 | 88.6% | 114% | 102% | 109% | 122% | 96% | 97.1% | 92.7% | 87% | 106% | > 10 µM | > 10 µM
5 | N#C[C@@H]1C[C@@H]2C[C@@H]2N1C(=O)[C@@H](N)C12CC3CC(CC(O)(C3)C1)C2 | 0 | 0 | – | 98.5% | 102% | 93.5% | 100% | 87.7% | 101% | 98.6% | 95.8% | 104% | 98.2% | – | – | – | – | – | > 10 µM | > 10 µM | – | 0 | 0 | 98.2% | 108% | 92.8% | 108% | 97.7% | 95.5% | 104% | 97.8% | 97.9% | 96.6% | > 10 µM | > 10 µM
6 | Nc1nccc(Oc2ccc(NC(=O)c3cn(COP(=O)(O)O)cc(-c4ccc(F)cc4)c3=O)cc2F)c1Cl | 0 | 0 | 3.6 | 97.9% | 103% | 98.7% | 104% | 106% | 97.2% | 96.8% | 94% | 94.5% | 90.2% | 104% | 102% | 108% | 99.8% | 35% | > 10 µM | > 10 µM | 3.15 µM | – | 0 | – | – | – | – | – | 106% | 103% | 105% | 97.5% | 102% | – | > 10 µM
7 | OC[C@H]1O[C@@H](n2cnc3c(N[C@H]4CCC[C@@H]4O)ncnc32)[C@H](O)[C@@H]1O | 0 | 0 | 0 | 99.4% | 100% | 98.6% | 97.1% | 102% | 103% | 99.3% | 104% | 101% | 107% | 86.2% | 84% | 95% | 102% | 94% | > 10 µM | > 10 µM | > 10 µM | – | 0 | – | – | – | – | – | 103% | 102% | 98.9% | 99% | 97.3% | – | > 10 µM

From the supplement of paper PMC13380429
